According to paper PMC5774841, “High-level production and purification in a functional state of an extrasynaptic gamma-aminobutyric acid type A receptor containing α4β3δ subunits” (PLoS ONE, 2018):
Like-named read-outs stand apart in the source and are kept apart here.

Columns and labels:
N–Flag–α4β3 receptors = biological target: T1, N–Flag–α4β3 receptors (Homo sapiens, UniProt P28472+P48169); assay: Whole-cell patch-clamp of GABA-elicited currents in the control N-Flag-α4β3 cell line; type: cell-based; details: drug 10 μM co-applied for 4 s, 10 mM GABA, notch protocol
T1 construct: expressed in transfected cells
Experimental: HEK 293 cells stably expressing tetracycline inducible α4β3N-Flag-δ or N-Flag-α4β3 GABAA receptors were cultured on glass coverslips and induced with tetracycline (2μg/ml) 24 hours before recordings. The coverslips were placed in a recording chamber and perfused with the bath solution. Cells were voltage clamped at -50 mV using the patch clamp amplifier (Axopatch 200A, Molecular Devices, Sunnyvale, CA). GABAA receptor-mediated chloride currents from HEK cells were recorded using the whole-cell configuration of patch-clamp electrophysiology. Data was acquired using Clampex version 8.1 (Molecular Devices), digitized at 10 kHz and filtered at 5 kHz. Current traces were analyzed using Clampfit version 9 (Molecular Devices). Series resistance ranged from 0.5–4 MΩ and cell capacitances from 9–18 pF. Membrane-capacitance and series-resistance were compensated electronically by > 85% with a lag of 10 μ seconds. […]
Statistical analysis for electrophysiology was done using GraphPad Prism 6. […] For Western blotting, the ratio of the signal intensity of individual antibodies for each sample was determined. Pooled (weighted) mean and standard deviation was determined for each receptor and p value determined by two-tailed unpaired Student’s t-test, using GraphPad QuickCalcs software.

α4β3N–Flag–δ GABAAR = biological target: T2, α4β3N–Flag–δ GABAAR (Homo sapiens, UniProt O14764+P28472+P48169); assay: Whole-cell patch-clamp of GABA-elicited currents in the induced α4β3N-Flag-δ cell line; type: cell-based; details: for enhancement of maximum GABA elicited currents: drug 10 μM co-applied for 4 s, notch protocol
T2 construct: expressed in transfected cells
Experimental: HEK 293 cells stably expressing tetracycline inducible α4β3N-Flag-δ or N-Flag-α4β3 GABAA receptors were cultured on glass coverslips and induced with tetracycline (2μg/ml) 24 hours before recordings. The coverslips were placed in a recording chamber and perfused with the bath solution. Cells were voltage clamped at -50 mV using the patch clamp amplifier (Axopatch 200A, Molecular Devices, Sunnyvale, CA). GABAA receptor-mediated chloride currents from HEK cells were recorded using the whole-cell configuration of patch-clamp electrophysiology. Data was acquired using Clampex version 8.1 (Molecular Devices), digitized at 10 kHz and filtered at 5 kHz. Current traces were analyzed using Clampfit version 9 (Molecular Devices). Series resistance ranged from 0.5–4 MΩ and cell capacitances from 9–18 pF. Membrane-capacitance and series-resistance were compensated electronically by > 85% with a lag of 10 μ seconds. Drugs were delivered via a multichannel superfusion pipette coupled to a piezoelectric elements that switched superfusion solution in < 1 millisecond. The recording chamber was continuously perfused with the bath solution in mM: 145 NaCl, 5 KCl, 10 HEPES, 2 CaCl2, and 1 MgCl2, 10 glucose, pH 7.4 (pH adjusted with N-methyl glucosamine). The pipette solution for whole-cell recordings contained in mM: 140 KCl, 10 HEPES, 1 EGTA and 2 MgCl2 at pH 7.3 (pH adjusted with KOH). Open pipette resistances ranged from 1.6–3 M. Errors are standard deviation from at least three replicas.
(§1) Statistical analysis for electrophysiology was done using GraphPad Prism 6. […] Analysis of the [^3H]muscimol binding was carried out using Igor Pro 7 (WaveMetrics). For Western blotting, the ratio of the signal intensity of individual antibodies for each sample was determined. Pooled (weighted) mean and standard deviation was determined for each receptor and p value determined by two-tailed unpaired Student’s t-test, using GraphPad QuickCalcs software.

[1] = biological target: T3, α4β3N-Flag-δ GABAA receptor in native membranes (Homo sapiens, UniProt O14764+P28472+P48169); assay: [3H]muscimol binding (filtration assay) to cell membranes
T3 construct: expressed in transfected cells
Experimental: Radioactive ligand binding assays were carried out as previously described, with the exception that GABAAR binding sites were assayed at 250 nM [^3H]muscimol because of this receptor’s higher affinity.
as §1
Fig 3 The binding isotherm of the agonist [^3H]muscimol to the α4β3N-Flag-δ GABAA receptor in native membranes and reconstituted into CHAPS/lipid micelles. Binding curves of [^3H]muscimol to α4β3N–Flag–δ GABAΑRs, both, in cell membranes (pmol/mg membrane protein) and after purification and reconstitution into micelles of 5 mM CHAPS and 200 μM DOPC:DOPS:Cholesterol in mole ratio 52:15:33 (pmol/mL). […] The displaceable binding and its standard deviation was determined by subtracting these two values and propagating errors at each total muscimol concentration. The curves were fitted by nonlinear least squares with weighting by standard deviation. These yielded apparent dissociation constants of 9.2 ± 0.6 and 35 ± 12 nM, respectively. The Bmax of the membranes was 22.6 ± 0.5 pmol/mg and for reconstituted receptors in micelles was 19 ± 3 pmol/mL. The Hill coefficients differed little from one (1.07 ± 0.3 and 0.90 ± 0.05 respectively).

[2] = biological target: T4, α4β3N-Flag-δ GABAA receptor reconstituted into CHAPS/lipid micelles (Homo sapiens, UniProt O14764+P28472+P48169); assay: [3H]muscimol binding to purified receptor reconstituted into CHAPS/lipid micelles
T4 construct: made in house; DDM solubilization, anti-Flag beads, elution with Flag peptide into CHAPS/lipid
Experimental: Cells with inducible expression of N-Flag-α4β3 and α4β3N-Flag-δ were induced with tetracycline (1 μg/ml final concentration, Life Technologies) and 5 mM sodium butyrate (Sigma-Aldrich, St. Louis, MO) for 24 hours and harvested in 10 ml per ten 15 cm–dishes of 10 mM HEPES, 1 mM EDTA (buffer A) freshly supplemented with protease inhibitors and 1 mM PMSF (final concentration) at 4°C with all subsequent purification procedures carried out at 4°C. Cells were homogenized with three cycles of 10 s each separated by 30 s intervals (Ultra Turrax T25, IKA Works, Wilmington, NC), followed by 20 strokes in Kontes-Duval glass tissue grinder. Homogenate was centrifuged at 43,000 x g for 30 min at 4°C and the pellet was resuspended in the buffer A and the entire procedure repeated. The resulting pellet was resuspended in the buffer A and a final homogenization carried out by aspiration with a 21-gauge needle and expulsed through 27-gauge needle. Concentration of total protein was assessed with the Pierce BCA protein assay kit (Pierce, Rockford, IL). Under constant stirring, the membrane fraction was solubilized over 30 min by dropwise addition of 30 mM DDM (Anatrace, Maumee, OH) in buffer B (50 mM Tris/HCl, 150 mM NaCl, 2 mM CaCl2, 5 mM KCl, 5 mM MgCl2, 4 mM EDTA, pH 7.5) and 10% glycerol, supplemented with protease inhibitors and 1 mM PMSF, with the volume adjusted to produce an effective protein concentration of 1 mg/ml. Following an additional 2 hours of solubilization, the solution was centrifuged at 45,000 x g for 30 min at 4°C. Insoluble material in the pellet was discarded and the supernatant was stored in liquid nitrogen overnight.
After washing once with buffer B, 2 ml of Flag beads (Sigma-Aldrich) were pre-treated overnight at 4°C on polypropylene columns (Qiagen, Hilden, Germany) with 1.5 ml of 10 mg/ml poly-d-Lysine hydrobromide with gentle agitation. On the following day, beads were washed three times with six 2–ml volumes of buffer B with 10% glycerol and incubated with solubilized membrane fractions with gentle agitation for 2 hours. Once transferred back into propylene columns, beads were washed once with wash buffer (17 mM CHAPS, 8.5 mM asolectin in buffer B with 10% glycerol, homogenized with glass grinder and sonicated for 10 min), equilibrated with the same buffer for 1 hour with agitation and washed again. Two more washes with elution buffer (5 mM CHAPS, 200 μM asolectin in buffer B with 10% glycerol, prepared as with wash buffer) were performed prior to elution of receptors by incubation with two x 2–ml of elution buffer supplemented with 0.15 mg/ml of Flag peptide (Sigma-Aldrich) for 2 hours with gentle rocking (elution 1). Second elution (elution 2) and another overnight incubation with 2–ml (elution 3) followed.
[…] […] […] […] The curves were fitted by nonlinear least squares with weighting by standard deviation. These yielded apparent dissociation constants of 9.2 ± 0.6 and 35 ± 12 nM, respectively. The Bmax of the membranes was 22.6 ± 0.5 pmol/mg and for reconstituted receptors in micelles was 19 ± 3 pmol/mL. The Hill coefficients differed little from one (1.07 ± 0.3 and 0.90 ± 0.05 respectively).

α4β3δ receptors = details: cited from earlier work
α4β3γ2 receptors = details: cited from earlier work
[3] = system: concatenated subunits β3-α1-δ/β3-α1; details: cited from earlier work
α1β3δ GABAARs = system: α1β3δ GABAARs; design: method as in PMID 27493204; details: cited from earlier work; for degree of desensitization: in 4 seconds
[4] = 2 nM [3H]muscimol, reconstituted
[5] = after 8.5 ms pulse of 100 μM GABA, two exponentials
[6] = linear fit of activation rate up to ~10 μM GABA
[7] = CHAPS/DOPC:DOPS:Cholesterol micelles

T2 sequence (P48169 36-554): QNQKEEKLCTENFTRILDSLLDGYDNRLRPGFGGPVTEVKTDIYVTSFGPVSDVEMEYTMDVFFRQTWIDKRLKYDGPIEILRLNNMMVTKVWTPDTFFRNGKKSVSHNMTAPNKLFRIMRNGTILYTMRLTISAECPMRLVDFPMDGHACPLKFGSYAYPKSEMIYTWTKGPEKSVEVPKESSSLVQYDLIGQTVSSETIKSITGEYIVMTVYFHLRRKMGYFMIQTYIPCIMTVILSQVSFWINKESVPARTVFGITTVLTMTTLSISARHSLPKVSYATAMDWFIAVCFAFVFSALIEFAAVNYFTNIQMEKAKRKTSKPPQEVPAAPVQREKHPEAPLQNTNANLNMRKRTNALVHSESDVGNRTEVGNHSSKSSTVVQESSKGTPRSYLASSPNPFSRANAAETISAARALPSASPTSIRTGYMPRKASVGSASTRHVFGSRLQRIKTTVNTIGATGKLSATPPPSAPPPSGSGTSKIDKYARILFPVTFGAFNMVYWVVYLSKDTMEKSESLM
T2 sequence (P28472 26-473 isoform P28472-2 limits assumed): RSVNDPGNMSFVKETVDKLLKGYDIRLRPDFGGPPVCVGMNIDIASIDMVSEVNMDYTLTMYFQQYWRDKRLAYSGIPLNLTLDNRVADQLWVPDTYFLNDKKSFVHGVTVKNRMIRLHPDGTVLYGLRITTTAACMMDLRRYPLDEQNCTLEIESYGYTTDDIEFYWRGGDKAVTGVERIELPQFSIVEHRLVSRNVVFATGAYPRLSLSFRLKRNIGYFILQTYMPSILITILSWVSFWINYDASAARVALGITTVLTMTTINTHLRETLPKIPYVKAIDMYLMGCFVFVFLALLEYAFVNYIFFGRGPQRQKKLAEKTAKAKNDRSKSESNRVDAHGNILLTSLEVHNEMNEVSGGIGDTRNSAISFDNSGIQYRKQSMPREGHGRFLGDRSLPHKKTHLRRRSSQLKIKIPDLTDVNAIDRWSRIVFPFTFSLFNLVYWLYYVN
T2 sequence (O14764 25-452): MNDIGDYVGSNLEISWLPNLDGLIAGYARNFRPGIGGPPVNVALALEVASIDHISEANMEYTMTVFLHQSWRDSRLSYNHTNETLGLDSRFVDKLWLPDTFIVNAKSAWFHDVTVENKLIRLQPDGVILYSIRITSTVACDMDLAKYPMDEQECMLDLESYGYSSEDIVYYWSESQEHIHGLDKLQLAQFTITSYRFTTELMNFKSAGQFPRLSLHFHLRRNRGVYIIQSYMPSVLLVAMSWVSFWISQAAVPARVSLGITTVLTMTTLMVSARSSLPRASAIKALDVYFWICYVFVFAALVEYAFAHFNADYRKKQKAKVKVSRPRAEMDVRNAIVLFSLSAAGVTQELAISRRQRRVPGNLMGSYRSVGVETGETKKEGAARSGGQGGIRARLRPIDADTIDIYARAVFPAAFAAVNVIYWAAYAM
T4 sequence (P48169 36-554): as the sequence (P48169 36-554) above
T4 sequence (P28472 26-473 isoform P28472-2 limits assumed): as the sequence (P28472 26-473 isoform P28472-2 limits assumed) above
T4 sequence (O14764 25-452): as the sequence (O14764 25-452) above
T3 sequence (P48169 36-554): as the sequence (P48169 36-554) above
T3 sequence (P28472 26-473 isoform P28472-2 limits assumed): as the sequence (P28472 26-473 isoform P28472-2 limits assumed) above
T3 sequence (O14764 25-452): as the sequence (O14764 25-452) above
T1 sequence (P48169 36-554): as the sequence (P48169 36-554) above
T1 sequence (P28472 26-473 isoform P28472-2 limits assumed): as the sequence (P28472 26-473 isoform P28472-2 limits assumed) above

What does the source list for `O=C(Nc1c(-c2cccs2)nc2ccccn12)c1ccc(Cl)cc1` [DS2]?
enhancement of maximum GABA elicited currents (N–Flag–α4β3 receptors): 12 ± 7%; enhancement of maximum GABA elicited currents (α4β3N–Flag–δ GABAAR; 10 mM GABA): 230 ± 63%; Hill coefficient of modulation of [3H]muscimol binding ([1]; 2 nM [3H]muscimol, membranes): 0.9 ± 0.2; maximum modulation of [3H]muscimol binding ([1]; 2 nM [3H]muscimol, membranes): 139 ± 4%; EC50 ([1]; 2 nM [3H]muscimol, native membranes, read-out: EC50 of modulation of [3H]muscimol binding): 2 ± 0.7 µM; enhancement of displaceable [3H]muscimol binding ([1]; DS2 30 μM, [3H]muscimol 2 nM, membranes): 142 ± 12%; EC50 ([2]; 2 nM [3H]muscimol, CHAPS/PC:PS:Cholesterol micelles, read-out: EC50 of modulation of [3H]muscimol binding): 2.3 ± 0.8 µM; Hill coefficient of modulation of [3H]muscimol binding [2, 4]: 1.2 ± 0.5; maximum modulation of [3H]muscimol binding [2, 4]: 132 ± 4%; enhancement of displaceable [3H]muscimol binding ([2]; DS2 30 μM, [3H]muscimol 2 nM, CHAPS/lipid micelles): 128 ± 11%

With `NCCCC(=O)O` [GABA, γ-aminobutyric acid] as the molecule, how does the “activation time constant τ” value (α4β3N–Flag–δ GABAAR; 0.1 μM GABA) read?
Its value is 165 ± 20 ms.

And the “activation time constant τ” value (α4β3N–Flag–δ GABAAR; 100 μM GABA)?
Its value is 6 ± 1 ms.

And the “fraction of available channels opened (efficacy of GABA)” value (α4β3N–Flag–δ GABAAR; 10 mM GABA, assumes 10 mM GABA + 10 μM etomidate opens 100% of channels)?
Its value is 17 ± 6%.

What about the “desensitization time constant τ” value (α4β3N–Flag–δ GABAAR; 8-sec exposure to GABA 1–100 μM, all concentrations averaged) of the same molecule?
The value was 2.6 ± 0.9 s.

What about the “fraction of total current decay amplitude occupied by fastest phase” value (α4β3N–Flag–δ GABAAR; after 8.5 ms pulse of 100 μM GABA) of the same molecule?
Its value is 76 ± 12%.

What about the “deactivation time constant, fastest phase” value (α4β3N–Flag–δ GABAAR; [5]) of the same molecule?
The value was 175 ± 50 ms.

And the “deactivation time constant, slow phase” value (α4β3N–Flag–δ GABAAR; [5])?
The value was 1100 ± 440 ms.

What about the degree of desensitization (α4β3N–Flag–δ GABAAR; in 4 seconds at 100 μM GABA) of the same molecule?
The degree of desensitization was ~ 70%.

And the “k+1 apparent forward GABA binding rate” value (α4β3N–Flag–δ GABAAR; [6])?
The value was 5.7 ± 0.2 x 10^6 s^–1M^–1.

And the “k–1 apparent reverse GABA binding rate” value (α4β3N–Flag–δ GABAAR; [6])?
Its value is 5 ± 1 s^–1.

What about the “Hill coefficient of GABA concentration-response curve” value (α4β3N–Flag–δ GABAAR; peak currents normalized to 10 mM GABA) of the same molecule?
The value was 1.5 ± 0.24.

And the “desensitization time constant τ” value (α4β3δ receptors; 100 μM GABA)?
The value was 4.8 s.

What about the rise time (α4β3δ receptors; 100 μM GABA) of the same molecule?
Its rise time is ~ 100 ms.

And the deactivation time constant (α4β3δ receptors; lower time resolution perfusion system)?
The deactivation time constant was ~ 400 ms.

What about the “k+1 apparent forward GABA binding rate” value (α4β3γ2 receptors) of the same molecule?
The value was 6 x 10^6 s^–1M^–1.

What about the desensitization time constant ([3]; 1 mM GABA) of the same molecule?
The desensitization time constant was 4.7 s.

What about the degree of desensitization ([3]; after 4 s at 1 mM GABA) of the same molecule?
Its degree of desensitization is ~ 40%.

And the deactivation time constant [3]?
Its deactivation time constant is ~ 50 ms.

What about the “10–90% rise times” value (α1β3δ GABAARs; 1 mM GABA, depending on the construct ratio) of the same molecule?
Its value is 4 to 22 ms.

What about the “deactivation rate (time)” value (α1β3δ GABAARs; construct ratio 1:1:0.3) of the same molecule?
The value was ~ 170 ms.

And the degree of desensitization (α1β3δ GABAARs; much lower transfection ratios)?
The degree of desensitization was 40–70%.

And the degree of desensitization (α1β3δ GABAARs; transfection ratios similar to the authors')?
Its degree of desensitization is “little desensitization”.

And the “deactivation rate (time)” value (α1β3δ GABAARs; varied with ratio of constructs transfected)?
The value was 100 to 200 ms.

With `NCc1cc(=O)[nH]o1` [[^3H]muscimol] as the molecule, how does the “Bmax (sites per mg of membrane protein)” value ([1]; cell membranes) read?
The value was 22.6 ± 0.5 pmol/mg.

And the “apparent affinity relative to α1β3γ2 GABAAR cell line” value ([1]; higher than in previously developed α1β3γ2 cell line (refs 13, 26))?
The value was 5 fold.

What about the EC50 ([1]; read-out: apparent dissociation constant (EC50 of binding isotherm)) of the same molecule?
The EC50 was 0.0092 ± 0.0006 µM.

What about the Kd ([2]; 5 mM CHAPS and 200 μM DOPC:DOPS:Cholesterol 52:15:33 micelles, read-out: apparent dissociation constant) of the same molecule?
The Kd was 0.035 ± 0.012 µM.

And the Bmax [2, 7]?
The Bmax was 19 ± 3 pmol/mL.

What about the “Hill coefficient of binding isotherm” value [2, 7] of the same molecule?
The value was 0.90 ± 0.05.

With `CCOC(=O)c1cncn1[C@H](C)c1ccccc1` [etomidate] as the molecule, how does the “enhancement of maximum GABA elicited currents” value (N–Flag–α4β3 receptors) read?
The value was 490 ± 84%.

What about the “enhancement of maximum GABA elicited currents” value (α4β3N–Flag–δ GABAAR; 10 mM GABA) of the same molecule?
The value was 540 ± 235%.

With picrotoxin as the molecule, how does the “fraction of spontaneously open receptors (picrotoxin-inhibited current)” value (α4β3N–Flag–δ GABAAR; 2 mM picrotoxin for 8 s, relative to current with 10 mM GABA + 10 μM etomidate) read?
The value was “about 3.2 ± 0.6%”.
